Assays:
[1] = molecular target: human complement Factor B protein (Homo sapiens (Human), UniProt P00751); assay: Complement human Factor B protein binding test (SPR method); conditions: Biacore 8K, 1:1 Binding Kinetics Model
Protocol: Experimental purpose: To detect the kinetic constants and affinity of the binding between the test compounds and human complement Factor B using the SPR method.
1-Ethyl-3-(3-dimethylaminopropyl) carbodiimide hydrochloride (EDC) and N-hydroxysulfosuccinimide sodium salt (NHS) were mixed in a 1:1 ratio, and complement Factor B was diluted to 20 μg/mL in acetic acid solution with a pH of 5.5. Using a biomacromolecule interaction analyzer Biacore 8K, the programmed settings were set to add the EDC/NHS, the FB protein solution and the 1 M ethanolamine-hydrochloric acid solution to the detection plate. The detection plate was placed in the machine detection chamber, and the EDC/NHS mixture, the complement Factor B protein solution and the 1 M ethanolamine-hydrochloric acid solution were sequentially injected onto the surface of the CM5 chip according to the procedure for chip activation, ligand coupling and deactivation. The flow cell 1 of each channel was used as a reference channel for surface activation and deactivation only, without injection of complement Factor B protein solution. All sample stock solutions were diluted with running buffer (PBST), and all samples were serially diluted 2 times in duplicate for 6 points. The prepared sample was transferred to the detection plate according to the program settings and the detection plate was placed in the sample chamber of Biacore 8K. The detection program was run, and the samples were injected into each channel of the chip sequentially according to the program, with a binding time of 120 s, a dissociation time of 600 s and a flow rate of 30 μL/min. The data were analyzed using Biacore Insight Evaluation Software: The data were fitted using a 1:1 Binding Kinetics Model to obtain the binding rate constant (kon), dissociation rate constant (koff) and dissociation equilibrium constant (KD) for binding of each test sample to complement Factor B protein.

[2] = Plasma protein binding rate test (equilibrium dialysis), mouse; format: in vitro ADME, CD-1 mice; conditions: 2 μM, equilibrium dialysis 37° C. 4 hours, CD-1 mouse plasma
Protocol: (§1) Experimental purpose: To evaluate the protein binding rate of the compounds of the present disclosure in the plasma of CD-1 mice, SD rats, beagle dogs, cynomolgus monkeys and humans using equilibrium dialysis.
(§2) The test compounds were diluted with dialysis buffer into the plasma of the above five species to prepare samples with a final concentration of 2 μM. The samples were then added to a 96-well equilibrium dialysis device and dialyzed using phosphate buffered saline solution at 37° C. for 4 hours. Warfarin was used as a control compound in the experiment. The concentration of the test compounds and warfarin in the plasma and buffer was determined using LC-MS/MS. The free fraction of the compound was calculated by the following formula: PPB_Unbound (%)=100*FC/TC, where FC is the concentration of the compound at the buffer end of the dialysis plate; TC is the concentration of the compound at the plasma end of the dialysis plate; To is the concentration of the compound in the plasma sample at time zero.

[3] = Plasma protein binding rate test (equilibrium dialysis), rat; format: in vitro ADME, SD rats; conditions: 2 μM, equilibrium dialysis 37° C. 4 hours, SD rat plasma
Protocol: as §1, §2

[4] = Plasma protein binding rate test (equilibrium dialysis), dog; format: in vitro ADME, beagle dogs; conditions: 2 μM, equilibrium dialysis 37° C. 4 hours, beagle dog plasma
Protocol: as §1, §2

[5] = Plasma protein binding rate test (equilibrium dialysis), cynomolgus monkey; format: in vitro ADME, cynomolgus monkeys; conditions: 2 μM, equilibrium dialysis 37° C. 4 hours
Protocol: as §1, §2

[6] = Plasma protein binding rate test (equilibrium dialysis), human; format: in vitro ADME; conditions: 2 μM, equilibrium dialysis 37° C. 4 hours
Protocol: as §1, §2

[7] = In vitro liver microsomal stability test; format: in vitro ADME, human; conditions: 1 μM compound, 0.5 mg/mL liver microsomes, NADPH
Protocol: Liver microsomes: purchased from Corning or Xenotech, stored in a −80° C. refrigerator; reduced nicotinamide adenine dinucleotide phosphate (NADPH), supplier: Chem-Impex International, Cat. No.: 00616; control compounds: testosterone, diclofenac, propafenone.
Stock solution: 10 mM DMSO solution; preparation of working concentration: The stock solution was diluted to 100 μM using 100% acetonitrile (organic phase content: 99% acetonitrile, 1% DMSO).
Two 96-well incubation plates were prepared and named as T60 incubation plate and NCF60 incubation plate.
445 μL of microsomal working solution (liver microsomal protein concentration of 0.56 mg/mL) was added to both the T60 incubation plate and the NCF60 incubation plate. The two incubation plates were pre-incubated in a 37° C. water bath for approximately 10 minutes.
After pre-incubation was completed, 5 μL of the test compound or control compound working solution was added to both the T60 incubation plate and the NCF60 incubation plate and mixed well. 50 μL of potassium phosphate buffer per well was added to the NCF60 incubation plate to initiate the reaction. 180 μL of termination solution (acetonitrile solution containing 200 ng/mL tolbutamide and 200 ng/mL labetalol) and 6 μL of NADPH regeneration system working solution were added to a TO termination plate. […]

[8] = Pharmacokinetic study in rats; format: in vivo, Male SD rats; conditions: rat; for F: PO 10 mpk vs IV 1 mpk
Protocol: Male SD rats (6 to 8 weeks old, weighing 200 to 300 g) were selected.
Injection administration (IV) was carried out at a dose of 1 mpk and a concentration of 0.20 mg/mL with a vehicle of 20% PEG400/10% solutol/70% water. Oral administration (PO) was carried out at a dose of 10 mpk and a concentration of 1 mg/mL with a vehicle of 20% PEG400/10% solutol/70% water.
Sample collection: 0.03 mL of blood samples were collected by puncture of the saphenous vein in experimental animals at each time point, and the actual blood collection time was recorded.
All blood samples were added to commercial 1.5 mL EDTA-K2 anticoagulant tubes. After blood sample collection, DDV was added into the plasma matrix as a stabilizer, wherein the ratio of plasma to Dichlorvos (DDV) solution was 40:1. The DDV solution was a 40 mM DDV solution in acetonitrile/water (1:1). Within half an hour, the mixture was centrifuged at 4° C. and 3000 g for 10 minutes. The supernatant plasma was aspirated, quickly placed in dry ice and stored in a −80° C. refrigerator for LC-MS/MS analysis.
A non-compartmental model in Phoenix WinNonlin 6.3 pharmacokinetic software was used to process the plasma concentration data. The pharmacokinetic parameters were calculated using the linear-log trapezoidal method. C0: concentration needed immediately after intravenous injection; Cmax: the highest plasma drug concentration after administration; Tmax: time needed to reach drug peak concentration after administration; T1/2: time needed for plasma drug concentration to decrease by half; Vdss: apparent volume of distribution, refers to the proportional constant between the amount of drug in the body and the plasma drug concentration when the drug reaches dynamic equilibrium in the body. Cl: clearance rate, refers to the apparent volume of distribution of the drug cleared from the body per unit time; AUC0-last: area under the drug time curve, refers to the area surrounded by the plasma drug concentration curve against the time axis; F: bioavailability.

Caco-2 cells = assay: In vitro Caco-2 cell permeability test; format: in vitro ADME; conditions: Caco-2, 2 μM, 120 minutes; for Apparent permeability coefficient: pH 7.40, direction not given; for Efflux ratio: Papp(BA)/Papp(AB)
Protocol: Cell culture was performed using MEM (minimum essential medium) supplemented with 2 mM L-glutamine, 10% fetal bovine serum (FBS), 100 U/mL penicillin-G and 100 μg/mL streptomycin. Cell culture conditions were 37±1° C., 5% CO2 and saturated humidity. When the cells reached a density of 80 to 90%, trypsin (0.05%, w/v)/EDTA (0.02%, w/v) digestion solution was added to digest the cells before seeding the plate. Cells were seeded in BD Falcon Transwell-96 well plates at a seeding density of 1×10^5 cells/cm^2. The cells were incubated in a carbon dioxide incubator for 22 days and then used for transport experiments.
Hank's balanced salt buffer (pH 7.40±0.05) containing 10 mM HEPES was used as the transport buffer in this project. The bidirectional transport of the test compound and the positive drug digoxin was tested at a concentration of 2 μM, with two parallel samples each, and the transport of fenoterol and propranolol from the apical to the basal end (A-B) was tested. The concentration of DMSO in the incubation system was controlled to 1% or less. After loading the sample, the cell plate was incubated at 37±1° C., 5% CO2 and saturated humidity for 120 minutes. All samples were vortexed and centrifuged at 3220 rpm and 20° C. for 20 minutes. The control sample and test sample were diluted in a 1:1 (v/v) ratio with ultrapure water and stored at 4° C., and the analytical tests were performed by liquid chromatography tandem mass spectrometry (LC/MS/MS).
In this study, the liquid chromatography tandem mass spectrometry (LC/MS/MS) method was used to semi-quantitatively analyze the peak area ratios of the test compounds and control samples fenoterol, propranolol and digoxin to the internal standard in the starting solution, receiving solution and administration well supernatant. The apparent permeability coefficient (Papp, cm/s), efflux rate and recovery rate were calculated using the following formula: • (1) Papp=(dCr/dt)×Vr/(A×C0), dCr/dt is the cumulative concentration of the compound at the receiving end per unit time (μM/s); Vr is the volume of the solution at the receiving end (0.075 mL and 0.250 mL for the solution at the apical and basal ends, respectively); A is the relative surface area of the cell monolayer (0.0804 cm^2); C0 is the starting concentration (nM) of the test sample at the administration end or the peak area ratio of the control sample. • (2) Efflux ratio=Papp(BA)/Papp(AB) • (3) Recovery rate (%)=100×[(Vr×Cr)+(Vd×Cd)]/(Vd×C0), C0 is the starting concentration (nM) of the test sample at the administration end or the peak area ratio of the control sample; Vd is the volume at the administration end (0.075 mL on the apical side and 0.250 mL on the basal side); Cd and Cr are the final concentration (nM) of the test sample or the peak area ratio of the control sample at the administration and receiving ends, respectively.

Chain of human complement Factor B protein (P00751 26-764): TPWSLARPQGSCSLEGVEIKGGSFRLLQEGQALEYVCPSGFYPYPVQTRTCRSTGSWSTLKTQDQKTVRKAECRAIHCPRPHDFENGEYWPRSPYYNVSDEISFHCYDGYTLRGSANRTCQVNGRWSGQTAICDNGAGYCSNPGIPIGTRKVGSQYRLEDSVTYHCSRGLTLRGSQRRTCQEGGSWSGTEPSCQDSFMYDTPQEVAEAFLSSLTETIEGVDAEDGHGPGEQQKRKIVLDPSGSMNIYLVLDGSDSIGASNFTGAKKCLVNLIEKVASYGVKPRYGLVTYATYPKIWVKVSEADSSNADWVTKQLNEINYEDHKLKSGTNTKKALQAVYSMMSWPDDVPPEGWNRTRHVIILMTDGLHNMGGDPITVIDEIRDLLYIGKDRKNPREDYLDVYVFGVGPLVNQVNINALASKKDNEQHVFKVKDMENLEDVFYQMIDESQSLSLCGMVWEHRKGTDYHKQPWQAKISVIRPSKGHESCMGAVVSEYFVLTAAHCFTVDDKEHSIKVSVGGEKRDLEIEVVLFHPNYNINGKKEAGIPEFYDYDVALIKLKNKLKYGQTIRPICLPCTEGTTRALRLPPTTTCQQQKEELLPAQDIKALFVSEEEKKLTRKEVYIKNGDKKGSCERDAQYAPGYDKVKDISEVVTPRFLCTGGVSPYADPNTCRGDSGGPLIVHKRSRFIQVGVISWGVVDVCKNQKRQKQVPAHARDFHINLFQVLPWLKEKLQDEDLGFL

Structure (SMILES)	Kd [1]	Plasma protein binding (PPB) unbound, Mouse (M) [2]	Plasma protein binding (PPB) unbound, Rat (R) [3]	Plasma protein binding (PPB) unbound, Dog (D) [4]	Plasma protein binding (PPB) unbound, Cynomolgus monkey (C) [5]	Plasma protein binding (PPB) unbound, Human (H) [6]	Human liver microsomal stability CLint [7]	AUC0-last ([8]; IV 1 mpk)	C0 ([8]; IV 1 mpk)	Cl ([8]; IV 1 mpk)	T1/2 ([8]; IV 1 mpk)	Vdss ([8]; IV 1 mpk)	AUC0-last ([8]; PO 10 mpk)	Cmax ([8]; PO 10 mpk)	T1/2 ([8]; PO 10 mpk)	Tmax ([8]; PO 10 mpk)	F [8]	Apparent permeability coefficient (Caco-2 cells)	Efflux ratio (Caco-2 cells)
COc1cc(C)c2[nH]ccc2c1CN1C2CCC1(c1ccc(C(=O)O)cc1)CC(C1CC1)C2 (single isomer, unassigned) [Compound 3B]	< 100 nM	19.1%	14.1%	25.6%	28.5%	15.2%	<15 mL/min/kg	10.573 µM·h	6.2 µM	3.5 mL/min/kg	2.06 h	0.53 L/kg	33.029 µM·h	7.83 µM	9.90 h	0.50 h	31.2%	1.21 10^−6 cm/s	22.6
COc1cc(C)c2[nH]ccc2c1CN1[C@@H]2CC[C@@]1(c1ccc(C(=O)O)cc1)C[C@H](C1CC1)C2 [Compound 3A]	< 100 nM	–	–	–	–	–	–	–	–	–	–	–	–	–	–	–	–	–	–
CCS[C@H]1C[C@H]2CC[C@@](c3ccc(C(=O)O)cc3)(C1)N2Cc1c(OC)cc(C)c2[nH]ccc12 [Compound 1A]	< 100 nM	–	–	–	–	–	–	–	–	–	–	–	–	–	–	–	–	–	–

Other lines, results leading:

Kd [1]	Plasma protein binding (PPB) unbound, Mouse (M) [2]	Plasma protein binding (PPB) unbound, Rat (R) [3]	Plasma protein binding (PPB) unbound, Dog (D) [4]	Plasma protein binding (PPB) unbound, Cynomolgus monkey (C) [5]	Plasma protein binding (PPB) unbound, Human (H) [6]	Human liver microsomal stability CLint [7]	AUC0-last ([8]; IV 1 mpk)	C0 ([8]; IV 1 mpk)	Cl ([8]; IV 1 mpk)	T1/2 ([8]; IV 1 mpk)	Vdss ([8]; IV 1 mpk)	AUC0-last ([8]; PO 10 mpk)	Cmax ([8]; PO 10 mpk)	T1/2 ([8]; PO 10 mpk)	Tmax ([8]; PO 10 mpk)	F [8]	Apparent permeability coefficient (Caco-2 cells)	Efflux ratio (Caco-2 cells)	Structure (SMILES)
< 100 nM	–	–	–	–	–	–	–	–	–	–	–	–	–	–	–	–	–	–	COc1cc(C)c2[nH]ccc2c1CN1[C@@H]2CC[C@@]1(c1ccc(C(=O)O)cc1)C[C@@H](SC)C2 [Compound 2A]
< 100 nM	12.5%	11.6%	16.2%	17.4%	13.3%	<15 mL/min/kg	–	–	–	–	–	–	–	–	–	–	1.19 10^−6 cm/s	26.1	CCSC1CC2CCC(c3ccc(C(=O)O)cc3)(C1)N2Cc1c(OC)cc(C)c2[nH]ccc12.O=CO (single isomer, unassigned) [Compound 1B]
< 100 nM	22.2%	15.1%	31.7%	25.6%	21.7%	–	5.645 µM·h	5.81 µM	6.5 mL/min/kg	1.16 h	0.55 L/kg	28.425 µM·h	9.03 µM	11.7 h	0.50 h	50.4%	1.56 10^−6 cm/s	15.8	COc1cc(C)c2[nH]ccc2c1CN1C2CCC1(c1ccc(C(=O)O)cc1)CC(SC)C2.O=CO (single isomer, unassigned) [Compound 2B]

Reference: patent US20260055107A1, “SERIES OF NITROGEN-CONTAINING BRIDGED HETEROCYCLIC COMPOUNDS AND PREPARATION METHOD THEREFOR” (CMS RESEARCH & DEVELOPMENT PTE. LTD., priority 2022, published 2026)
